Reference: US20240069011A1, “PREDICTING EFFICACY OF OR RESISTANCE TO TREATMENT OF COLON CANCER” (2cureX A/S, priority 2020, published 2024)

What was measured:
[1] = test system: tumoroids from colon cancer patients; assay: Tumoroid ATP content (CellTiter-Glo 3D cell viability assay); assay type: cell-based, human; settings: 50% inhibition of total ATP content, day 7, tumoroids from four control patients
Experimental: The tumoroids were prepared from the same patient samples as described above under “drug sensitivity measured with imaging”. The tumoroids were added to drug screening arrays that we pre-loaded with varying concentrations of Oxaliplatin (3, 10, 30, 100, 300 uM), FOLFOX (0, 1, 0, 3, 1, 3, 10 30 uM. Equal concentrations of 5-Fluorouracil and Oxaliplatin) and SN38 (10, 30, 100, 300, 1000 nM). ATP content of cells in the tumoroids was measured day 0 and on day 7 using CellTiter-Glo 3D cell viability assay (Promega; Catalog number G9681). The homogenous CellTiter-Glo 3D assays generates a luminescent signal that is proportional to the amount of cellular ATP. The assay was conducted in accordance with the instructions from the manufacture (Promega) by allowing the drug screening arrays to equilibrate to room temperature (20-25° C.) and then adding an amount of the CellTiter-Glo 3D reagent to the drug screening arrays. The equal volume of media and reagent is mixed thoroughly for 5 min to induce cell lysis and release of cellular ATP content. The luminescence signal was monitored with the Cytation 1 (BioTek) imaging system operating in luminescence mode. The luminescence signal was quantified by direct comparison to an ATP dose-response curve created by replacing the drug screening media with ATP standards.

[2] = test system: tumoroids from colon cancer patients; assay: Tumoroid growth inhibition measured as projected area by imaging (CyQUANT, IndiNet); assay type: cell-based, human; settings: 50% inhibition of tumoroid growth (projected area), day 7, tumoroids from four control patients
Experimental: The tumoroids were prepared from patient samples as described above in Example 2 under “3D tumoroid preparation”. The tumoroids were added to drug screening arrays that we pre-loaded with varying concentrations of Oxaliplatin (3, 10, 30, 100, 300 uM), FOLFOX (0, 1, 0, 3, 1, 3, 10 30 uM. Equal concentrations of 5-Fluorouracil and Oxaliplatin) and SN38 (10, 30, 100, 300, 1000 nM). SN38 is the active components of Irinotecan. At day 6 to day 7 tumoroids were stained with CyQUANT (cell proliferation assay). Tumoroid growth was measured by taking brightfield images on day 0 and visualizing living cells using CyQUANT Cell proliferation assay (ThermoFisher) on day 7. All images were acquired using a Cytation 1 (BioTek) imaging system. For Control patients, tissue from resected tumor was used. This sampling method typically secures bigger amounts of tissue and mechanically as well as enzymatically digestion is performed.
Images from day 0 and day 7 were analysed using the Al image analysis algorithm IndiNet™, which quantifies the projected area (referred to as “area” in this example) of live cells in both brightfield (day 0) and fluorescence (day 7) images and calculates the relative growth inhibition. […]

[3] = Folfox = equal concentrations of 5-Fluorouracil and Oxaliplatin

Row | Compound | IC50 [1, 3] [µM] | IC50 [2, 3] [µM] | IC50 [1] [µM] | IC50 [2] [µM]
1 | O=C1[O][Pt]2([NH][C@@H]3CCCC[C@H]3[NH]2)[O]C1=O [Oxaliplatin, oxaliplatin] | 72.7 | 17.7 | – | –
2 | CCc1c2c(nc3ccc(O)cc13)-c1cc3c(c(=O)n1C2)COC(=O)[C@]3(O)CC [SN38] | – | – | 0.0367 | 0.00164
